{"source": "patent US6716588B2", "about": "“System for cell-based screening” (Cellomics, Inc., priority 1999, dated 2004)", "key": {"[1]": {"test_system": "PC-3 cells", "assay": "Cell spreading assay, PC-3 cells", "assay_type": "cell-based, human", "conditions": "for ability of cells to spread (percentage of cells with Cyto minus NucArea above threshold): PC-3 on type I collagen, 3 hours", "method": "(§1) Compounds that interfere with metastasis of prostate carcinoma cells were screened as follows. PC3 human prostate carcinoma cells (ATCC # CRL 1435) were cultured in media with appropriate stimulants and passaged to collagen coated 96 well plates. Similar experiments were also conducted with MDA-MB231, a breast carcinoma cell line (ATCC # HTB-26), A549 human lung carcinoma cell line (ATCC # CCL 185), and primary HMVEC-d human skin microvessel endothelial cells (Clonetics Walkersville, Md.\n(§2) Conditions in which cell spreading could be augmented or diminished were tested in various ways, including plating the cells on collagen coated (various concentrations) or collagen free substrates, varying the time of cell spreading prior to analysis, and plating cells in the presence of chemical modulators. After two hours, cells were fixed and stained with ALEXA™ 488 phalloidin (Molecular Probes) and Hoechst 33342 as per the protocol for cellular hypertrophy. The size of cells under these various conditions, as measured by cytoplasmic staining, was distinguished from background levels. The number of cells per field was determined by measuring the number of nuclei stained with the Hoechst DNA dye. The area per cell was found by dividing the cytoplasmic area (phalloidin image) by the cell number (Hoechst image)."}, "[2]": {"test_system": "A549 cells", "assay": "Cell movement (motility) of A549 cells", "assay_type": "cell-based, human", "conditions": "for inhibition of cell movement (motility): 10 μM; for stimulation of movement by matrix protein: A549 cells plated on matrix protein", "method": "(§3) To illustrate how cell spreading is a unique functional event that can be distinguished from attachment and motility by drug effects, we performed the following experiments. A549 cancer cells were allowed to spread on a collagen I coated substrate for 3 hours, and then were fixed and stained with rhodamine phalloidin. The number of cells that spread beyond a selectable threshold area was measured as a function of increasing concentrations of cytochalasin D. While cells normally spread to a size much larger than the nucleus in this time interval, cytochalasin D maintained cells in a tight rounded morphology not much larger than the nucleus. The movement of A549 cells was measured at 18 hours after plating. At a concentration of 0.5 μM, cytochalasin D prevented spreading of 80% of cells but permitted movement of 70% of cells. Cytochalasin had no effect on adhesion to the substrate as measured by the number of cells that remain attached after a 3 hour incubation.\n(§4) The spreading of cells is a function of the ligands and cell receptors that are employed, and plating cells on different immobilized ligands will selectively bind to matched cell surface receptors. A549 cells were plated on various matrix proteins and allowed to spread for 3 and for 5 hours. […] Thus ligand-dependent differences in the kinetics of cell spreading can be measured. In addition, strong differences in the activation of spreading were seen on different matrices. […] In contrast to spreading, cell motility presented a very different biological profile of these matrix proteins. […] In further experiments, cells were allowed to spread in the presence of various kinase inhibitors and the effect on cell spreading was determined."}, "[3]": {"test_system": "A549 cells", "assay": "Cell spreading assay, A549 cells", "assay_type": "cell-based, human", "conditions": "for inhibition of cell spreading: 10 μM; for stimulation of spreading by matrix protein / completeness of cell spreading on matrix protein: A549 cells plated on matrix protein", "method": "as §1, §2, §3, §4"}, "[4]": {"test_system": "L-929 cells", "assay": "High-content screen of drug-induced apoptosis, L-929 cells", "assay_type": "cell-based, mouse", "method": "(§5) Cell preparation. The cells chosen for this study were mouse connective tissue fibroblasts (L-929; ATCC CCL-1) and a highly invasive glioblastoma cell line (SNB-19; ATCC CRL-2219) (Welch et al., In Vitro Cell. Dev. Biol. 31:610, 1995). The day before treatment with an apoptosis inducing drug, 3500 cells were placed into each well of a 96-well plate and incubated overnight at 37° C. in a humidified 5% CO2 atmosphere. The following day, the culture medium was removed from each well and replaced with fresh medium containing various concentrations of paclitaxel (0-50 μM) from a 20 mM stock made in DMSO. The maximal concentration of DMSO used in these experiments was 0.25%. The cells were then incubated for 26 h as above. At the end of the paclitaxel treatment period, each well received fresh medium containing 750 nM MitoTracker Red (Molecular Probes; Eugene, Oreg.) and 3 μg/ml Hoechst 33342 DNA-binding dye (Molecular Probes) and was incubated as above for 20 min. Each well on the plate was then washed with HBSS and fixed with 3.7% formaldehyde in HBSS for 15 min at room temperature. The formaldehyde was washed out with HBSS and the cells were permeabilized for 90 s with 0.5% (v/v) Triton X-100, washed with HBSS, incubated with 2 U ml^−1 Bodipy FL phallacidin (Molecular Probes) for 30 min, and washed with HBSS. The wells on the plate were then filled with 200 μl HBSS, sealed, and the plate stored at 4° C. if necessary. The fluorescence signals from plates stored this way were stable for at least two weeks after preparation. As in the nuclear translocation assay, fluorescence reagents can be designed to convert this assay into a live cell high-content screen.\nImage acquisition and analysis on the ArrayScan System. The fluorescence intensity of intracellular MitoTracker Red, Hoechst 33342, and Bodipy FL phallacidin was measured with the cell screening system as described supra. Morphometric data from each pair of images obtained from each well was also obtained to detect each object in the image field (e.g., cells and nuclei), and to calculate its size, shape, and integrated intensity.\nCalculations and output. A total of 50-250 cells were measured per image field. For each field of cells, the following calculations were performed: (1) The average nuclear area (μm^2) was calculated by dividing the total nuclear area in a field by the number of nuclei detected. (2) The average nuclear perimeter (μm) was calculated by dividing the sum of the perimeters of all nuclei in a field by the number of nuclei detected in that field. Highly convoluted apoptotic nuclei had the largest nuclear perimeter values. (3) The average nuclear brightness was calculated by dividing the integrated intensity of the entire field of nuclei by the number of nuclei in that field. An increase in nuclear brightness was correlated with increased DNA content. (4) The average cellular brightness was calculated by dividing the integrated intensity of an entire field of cells stained with MitoTracker dye by the number of nuclei in that field. Because the amount of MitoTracker dye that accumulates within the mitochondria is proportional to the mitochondrial potential, an increase in the average cell brightness is consistent with an increase in mitochondrial potential. (5) The average cellular brightness was also calculated by dividing the integrated intensity of an entire field of cells stained with Bodipy FL phallacidin dye by the number of nuclei in that field. […]"}, "[5]": {"test_system": "SNB-19 cells", "assay": "High-content screen of drug-induced apoptosis, SNB-19 cells", "assay_type": "cell-based", "method": "as §5, with “Each well on the plate was then washed with HBSS and fixed with 3.7% formaldehyde in HBSS for 15 min at room temperature. The formaldehyde was washed out with HBSS and the cells were permeabilized for 90 s with 0.5% (v/v) Triton X-100, washed with HBSS, incubated with 2 U ml^−1 Bodipy FL phallacidin (Molecular Probes) for 30 min, and washed with HBSS. The wells on the plate were then filled with 200 μl HBSS, sealed, and the plate stored at 4° C. if necessary.” left out\nImage acquisition and analysis on the ArrayScan System. The fluorescence intensity of intracellular MitoTracker Red, Hoechst 33342, and Bodipy FL phallacidin was measured with the cell screening system as described supra. […]\nCalculations and output. A total of 50-250 cells were measured per image field. For each field of cells, the following calculations were performed: (1) The average nuclear area (μm^2) was calculated by dividing the total nuclear area in a field by the number of nuclei detected. (2) The average nuclear perimeter (μm) was calculated by dividing the sum of the perimeters of all nuclei in a field by the number of nuclei detected in that field. […] (3) The average nuclear brightness was calculated by dividing the integrated intensity of the entire field of nuclei by the number of nuclei in that field. […]"}, "[6]": {"test_system": "NF-KB transcription factor", "assay": "Cytoplasm to nucleus translocation screen of NF-KB (NucCyt Difference)", "assay_type": "cell-based, human", "conditions": "titrated in the presence of IL-1α", "method": "The distribution of the transcription factor is determined by labeling the nuclei with a DNA specific fluorophore like […] and the transcription factor with a specific fluorescent antibody. After autofocusing on the Hoechst labeled nuclei, an image of the nuclei is acquired in the cell-based screening system and used to create a mask by one of several optional thresholding methods, as described supra. The morphological descriptors of the regions defined by the mask are compared with the user defined parameters and valid nuclear masks are identified and used with the following method to extract transcription factor distributions. Each valid nuclear mask is eroded to define a slightly smaller nuclear region. The original nuclear mask is then dilated in two steps to define a ring shaped region around the nucleus, which represents a cytoplasmic region. The average antibody fluorescence in each of these two regions is determined, and the difference between these averages is defined as the NucCyt Difference. […] Using these two sampling regions, data on nuclear translocation can be automatically analyzed by the cell-based screening system on a cell by cell basis. […]"}}}
{"compound": "C[S+](C)[O-]", "note": "[DMSO]", "values": [{"measurement": "ability of cells to spread (percentage of cells with Cyto minus NucArea above threshold)", "setting": "[1]; DMSO 2.5%", "result": "significantly reduced"}, {"measurement": "ability of cells to spread (percentage of cells with Cyto minus NucArea above threshold)", "setting": "[1]; DMSO 5%", "result": "significantly reduced"}, {"measurement": "ability of cells to spread (percentage of cells with Cyto minus NucArea above threshold)", "setting": "[1]; DMSO at or below 1%", "result": "no effect"}]}
{"compound": "O=C(O)CN(CCN(CC(=O)O)CC(=O)O)CC(=O)O", "note": "[EDTA]", "values": [{"measurement": "cell adherence", "setting": "[1]; PC-3 cells, 50 mM", "result": "inhibited cell adherence"}, {"measurement": "cell spreading", "setting": "[1]; PC-3 cells, 50 mM", "result": "inhibited cell spreading"}]}
{"compound": "CN([C@@H](Cc1ccc(OS(=O)(=O)c2cccc3cnccc23)cc1)C(=O)N1CCN(c2ccccc2)CC1)S(=O)(=O)c1cccc2cnccc12", "note": "[KN-62]", "values": [{"measurement": "inhibition of cell movement (motility)", "setting": "[2]", "result": "ineffective"}, {"measurement": "inhibition of cell spreading", "setting": "[3]", "result": "ineffective"}]}
{"compound": "C=C1[C@@H](C)[C@H]2[C@H](Cc3ccccc3)NC(=O)[C@]23[C@H](OC(C)=O)/C=C/[C@@](C)(O)C(=O)[C@@H](C)C/C=C/[C@H]3[C@@H]1O", "note": "[cytochalasin D]", "values": [{"measurement": "binding of cells to the substrate", "setting": "[1]; cell line not given", "result": "did not affect binding of cells to the substrate"}, {"measurement": "spreading on various substrates", "setting": "[1]; cell line not given", "result": "prevented their spreading"}, {"measurement": "cells permitted to move", "setting": "[2]; 0.5 μM, movement measured at 18 hours after plating", "result": 70, "unit": "%"}, {"measurement": "cells prevented from spreading", "setting": "[3]; 0.5 μM, collagen I coated substrate, 3 hours", "result": 80, "unit": "%"}, {"measurement": "adhesion to the substrate (number of cells that remain attached)", "setting": "[3]; 3 hour incubation", "result": "no effect"}]}
{"compound": "O=c1c(-c2ccc(O)cc2)coc2cc(O)cc(O)c12", "note": "[genistein]", "values": [{"measurement": "inhibition of cell movement (motility)", "setting": "[2]", "result": "ineffective"}, {"measurement": "inhibition of cell spreading", "setting": "[3]", "result": "ineffective"}]}
{"compound": "CC(=O)O[C@H]1C(=O)[C@@]2(C)[C@H]([C@H](OC(=O)c3ccccc3)[C@]3(O)C[C@H](OC(=O)[C@H](O)[C@@H](NC(=O)c4ccccc4)c4ccccc4)C(C)=C1C3(C)C)[C@]1(OC(C)=O)CO[C@@H]1C[C@@H]2O", "note": "[paclitaxel]", "values": [{"measurement": "concentration of maximal response in many parameters", "setting": "[4]; L-929 cells, 26 h", "result": 5, "unit": "µM"}, {"measurement": "mitochondrial potential", "setting": "[4]; L-929 cells, any of the concentrations tested (0-50 μM)", "result": "did not show a sharp decrease"}, {"measurement": "sensitivity to low concentrations compared with SNB-19 cells", "setting": "[4]; L-929 cells, each parameter measured", "result": "less sensitive"}, {"measurement": "nuclear morphology", "setting": "[4]; L-929 cells, increasing amounts of paclitaxel", "result": "caused nuclei to enlarge and fragment"}, {"measurement": "dose of maximal response, L-929 relative to SNB-19 cells", "setting": "[4]; L-929 vs SNB-19", "result": 500, "unit": "fold"}, {"measurement": "mitochondrial potential", "setting": "[5]; 10 nM paclitaxel, 26 h", "result": "minimal"}, {"measurement": "concentration at which area, brightness, fragmentation of the nucleus and actin polymerization reached a maximum value", "setting": "[5]; 26 h", "result": 10, "unit": "nM"}, {"measurement": "all the parameters measured at increasing concentrations", "setting": "[5]; >10 nM paclitaxel", "result": "approached control levels"}]}
{"compound": "Calphostin C", "values": [{"measurement": "inhibition of cell movement (motility)", "setting": "[2]", "result": "equally effective at inhibiting cell spreading and movement"}, {"measurement": "inhibition of cell spreading", "setting": "[3]", "result": "equally effective at inhibiting cell spreading and movement"}]}
{"compound": "IL-1RA: an antagonist to the receptor for IL-1", "values": [{"measurement": "inhibition of translocation induced by IL-1α", "setting": "[6]", "result": "progressively inhibiting the translocation"}]}
{"compound": "collagen I: matrix protein used as substrate coating", "values": [{"measurement": "time at which cell spreading was achieved", "setting": "[1]; PC-3 cells on a defined collagen I matrix", "result": "2 to 3", "unit": "h"}, {"measurement": "stimulation of movement by matrix protein", "setting": "[2]", "result": "maximally stimulated both movement and spreading"}, {"measurement": "stimulation of spreading by matrix protein", "setting": "[3]", "result": "maximally stimulated both movement and spreading"}, {"measurement": "completeness of cell spreading on matrix protein", "setting": "[3]; 3 hours", "result": "complete by 3 hours"}]}
{"compound": "fibronectin", "values": [{"measurement": "stimulation of movement by matrix protein", "setting": "[2]", "result": "minimally stimulated movement"}, {"measurement": "stimulation of spreading by matrix protein", "setting": "[3]", "result": "maximally stimulated spreading"}, {"measurement": "completeness of cell spreading on matrix protein", "setting": "[3]; 3 hours", "result": "incomplete"}]}
{"compound": "laminin", "values": [{"measurement": "stimulation of movement by matrix protein", "setting": "[2]", "result": "maximally stimulated movement"}, {"measurement": "stimulation of spreading by matrix protein", "setting": "[3]", "result": "minimally stimulating spreading"}, {"measurement": "completeness of cell spreading on matrix protein", "setting": "[3]; 3 hours", "result": "complete by 3 hours"}]}
